# Experimental data as given in patent US20030161866A1, “Novel pharmaceutical formulation to limit or delay surface absorption” (priority 2000, published 2003).
# Where two headings read alike, the source gives them in different places.
# Tests used:
# [1] = Visual (turbidity) solubility of DEET in IPA and water; type: physicochemical; conditions: aqueous with cosolvent or surfactant or cyclodextrin, thermodynamic from solid, read-out: limit of DEET solubility
# Description: Homogenous solutions of different concentrations of DEET with varying percentages of IPA in water were prepared and subsequently incorporated into the clay. Solutions of 30%, 40%, and 50% IPA in water were prepared. DEET was completely miscible with IPA, which was also completely miscible with water. The addition of DEET to the solvent mixture was therefore expected to produce a single homogenous phase within the limits of its solubility. Solutions were prepared consisting of the solvent systems and varying concentrations of DEET, from 12.5-200 mg/ml. DEET was added to the solvent in increments of 50 mg until the solution appeared turbid after vortexing for 5 seconds. Turbidity was used as a marker for saturation.
# Once various solvents were mixed with DEET, turbidity of the samples was used as a marker for saturation. All DEET spiking solutions were below saturation point.
# [2] = Evaporation (weight loss) of DEET/IPA/clay samples under nitrogen; type: physicochemical; conditions: no added IPA, over 12 hours under nitrogen, relative to amount of DEET
# Description: The samples prepared above were held at room temperature in the hood under nitrogen over a 12 hour period. Evaporation rates were measured every hour.
# Samples of the HDTMA clay/DEET/IPA matrix were mixed as illustrated in Example 1. Volatile components of the matrix were evaporated using a constant flow of nitrogen over 12 hours in fume hood. Control samples of DEET with IPA only and DEET alone were subjected to the same conditions as the DEET with HDTMA treated clay.
# Weight loss of the samples over 12 hours was used as a measure of the extent of evaporation. Samples were weighed at the beginning of the experiment (time 0) and at hourly intervals thereafter. Reported values are the difference between the original weight of formulation and the weight at sampling time, expressed as a percentage of the amount of IPA added to each. For the controls without IPA, percent weight loss was calculated relative to the amount of DEET in the original sample.
# [3] = 24 hours after administration of the last dose; cited from earlier work
# [4] = within two hours of administration; cited from earlier work
structure (smiles),measurement,setting,value
"CCN(CC)C(=O)c1cccc(C)c1 [DEET, N,N-diethyl-m-toluamide]",solubility at 5 seconds,"[1]; 30% IPA in water, 30% IPA in water",115 mg/mL
same,solubility at 5 seconds,"[1]; 40% IPA in water, 40% IPA in water",200 mg/mL
same,solubility at 5 seconds,"[1]; 50% IPA in water, 50% IPA in water",200 mg/mL
same,weight loss,[2],4%
same,absorbed dose recovered in the urine,[3],~90%
same,dose administered topically that is absorbed,[4],Approximately 17%
